Results on 14 compounds are retold here after patent US4258058A, “Phenoxyalkylcarboxylic acid compounds and thrombocyte-aggregation inhibition” (Boehringer Mannheim GmbH, priority 1978, dated 1981).

This assay concerns thrombocyte aggregation. The assay is described as follows: Born test: inhibition of the second phase of adrenalin induced thrombocyte aggregation in platelet-rich plasma (PRP). The class given is cell-based, human. The settings on record: for inhibition at 50 µM: Homo sapiens, at 5 × 10^-5 m, induced by 5×10^-6 m adrenalin, read-out: Percent Inhibition Of Thrombocyte Aggregation. The text has this:
In a series of determinations utilizing the Born test, venous blood from metabolically healthy persons was mixed with sodium citrate in a ratio of 9:1 and the erythrocytes precipitated by centrifuging at 150 g. The filtrate is enriched in thrombocytes and this filtrate is designated as platelet-rich plasma (PRP). One aliquot of the PRP is placed in the cuvette of an aggregometer (Universal Aggregometer, manufactured by Braun Melsungen, West Germany) and stirred with a magnetic stirrer. The substance to be tested is added in the form of an aqueous solution at a pH of about 7. Changes in the light transmission of the suspension are continuously recorded. After spontaneous aggregation ceases, further aggregation is induced by the addition of 5×10^-6 m adrenalin, forming larger thrombocyte aggregates and increasing the light transmission through the suspension.
The adrenalin induced aggregation takes place in two phases, i.e., the light transmission initially increases, then stagnates temporarily, and then increases again. Only the second phase of the aggregation can be influenced by aggregation inhibitors. For an evaluation of the results there is first established, in a control experiment using no test compound, the angle of the second aggregation phase against the horizontal for adrenalin induced aggregation and this is designated as 0% inhibition. Utilizing the same PRP, the test compound is added and aggregation is induced with adrenalin, and the course of aggregation continuously recorded. The angle of the second aggregation phase against the horizontal is again determined and the relationship of this angle against the angle determined in the control experiment yields the percent inhibition of the second phase of the thrombocyte aggregation.
The standard material "Colfarit" (acetylsalicylic acid) yields 100% inhibition at a concentration of 10^-4 m and 0% inhibition at a concentration of 5×10^-5 m. At the latter concentration the inventive compounds yielded the following results: […]

As for `CC(C)(Oc1ccc(CCNS(=O)(=O)c2ccc(Cl)cc2)cc1)C(=O)O` [2-{4-[2-(4-Chlorobenzenesulphonylamino)-ethyl]-phenoxy}-2-methylpropionic acid], the inhibition – broadly, the drop in the measured response relative to a control, in per cent – at 50 µM was found to be 100%.
On to `CC(=O)c1ccc(S(=O)(=O)NCCc2ccc(OCC(=O)O)cc2)cc1` [4-[2-(4-acetylbenzenesulphonylamino)-ethyl]-phenoxyacetic acid], for which the inhibition at 50 µM amounted to 100%.
The same measure, in the same setting: to `CC(CO)NC(=O)COc1ccc(CCNS(=O)(=O)c2ccccc2)cc1` (stereo not drawn) [4-[2-(Benzenesulphonylamino)-ethyl]-phenoxyacetic acid 1-hydroxy-2-propylamide] belongs 10%; to `O=C(O)COc1ccc(CCNS(=O)(=O)c2ccc(F)cc2)cc1` [4-[2-(4-Fluorobenzenesulphonylamino)-ethyl]-phenoxyacetic acid], 100%; to `Cc1ccc(S(=O)(=O)NCCc2ccc(OCC(=O)O)cc2)cc1` [4-[2-(p-toluenesulphonylamino)-ethyl]-phenoxyacetic acid], 100%.
As for `O=C(O)COc1ccc(CNS(=O)(=O)c2ccccc2)cc1` [4-(Benzenesulphonylaminomethyl)-phenoxyacetic acid], the inhibition at 50 µM was found to be 20%.
Regarding `CC(C)(Oc1ccc(CCNS(=O)(=O)c2ccccc2)cc1)C(=O)O` [2-{4-[2-(Benzenesulphonylamino)-ethyl]-phenoxy}-2-methylpropionic acid], the inhibition at 50 µM was determined as 20%.
Take `CC(=O)Oc1ccccc1C(=O)O` [Colfarit, acetylsalicylic acid, reference compound]: the inhibition at 50 µM is 0%. In addition, the “inhibition of thrombocyte aggregation” value (at 10^-4 m, induced by adrenalin) was 100%.
In the case of `O=C(O)COc1ccc(CCNS(=O)(=O)c2ccccc2)cc1` [4-[2-(Benzenesulphonylamino)-ethyl]-phenoxyacetic acid], the inhibition at 50 µM stood at 100%.
As for `O=C(O)COc1ccc(CCNS(=O)(=O)c2ccc(Cl)cc2)cc1` [4-[2-(4-chlorobenzenesulphonylamino)-ethyl]-phenoxyacetic acid], the inhibition at 50 µM was 100%.
The same measure, in the same setting: to `O=C(O)COc1ccc(CCCNS(=O)(=O)c2ccccc2)cc1` [4-[3-(Benzenesulphonylamino)-propyl]-phenoxyacetic acid] belongs 100%; to `CCOC(=O)CCNC(=O)COc1ccc(CCNS(=O)(=O)c2ccccc2)cc1` [4-[2-(Benzenesulphonylamino)-ethyl]-phenoxyacetic acid 2-ethoxycarbonylethylamide], 100%.
With `CC(C)OC(=O)COc1ccc(CCNS(=O)(=O)c2ccccc2)cc1` [Isopropyl 4-[2-(benzenesulphonylamino)-ethyl]-phenoxyacetate], the inhibition at 50 µM worked out at 100%.
In the case of `O=C(O)COc1ccc(CCNS(=O)(=O)c2cccc3ccccc23)cc1` [4-[2-(1-naphthalenesulphonylamino)-ethyl]-phenoxyacetic acid], the inhibition at 50 µM was 100%.
